Results: paper PMC4950071, “Reaction of pyranose dehydrogenase from Agaricus meleagris with its carbohydrate substrates” (The Febs Journal, 2015)

How the values were obtained:
Experiment in all cases: steady-state kinetics, ferrocenium reduction
Format in all cases: biochemical
[1] = molecular target: T1, AmPDH (pyranose dehydrogenase from Agaricus meleagris; A. meleagris PDH1) (Macropsalliota meleagris, UniProt Q3L245); settings: apparent; electron acceptor; 25 mM glucose fixed, 100 mM borate pH 8.5, 30 °C; read-out: Fc^+ / K M
T1 construct: C-terminal His6 tag; covalent FAD
Text: (§1) steady-state kinetics, ferrocenium reduction on AmPDH (pyranose dehydrogenase from Agaricus meleagris; A. meleagris PDH1)

[2] = molecular target: T2, AmPDH (pyranose dehydrogenase from Agaricus meleagris; A. meleagris PDH1) (Macropsalliota meleagris, UniProt Q3L245, H128A); settings: apparent; electron acceptor; 50 mM glucose fixed, 100 mM borate pH 8.5, 30 °C; non-covalently bound FAD; read-out: Fc^+ / K M
T2 construct: C-terminal His6 tag; covalent FAD
Text: as §1

[3] = molecular target: T3, AmPDH (pyranose dehydrogenase from Agaricus meleagris; A. meleagris PDH1) (Macropsalliota meleagris, UniProt Q3L245, H581A); settings: apparent; electron acceptor; 500 mM glucose fixed, 100 mM borate pH 8.5, 30 °C; read-out: Fc^+ / K M
T3 construct: C-terminal His6 tag; covalent FAD
Text: as §1

T1 sequence (Q3L245 26-602): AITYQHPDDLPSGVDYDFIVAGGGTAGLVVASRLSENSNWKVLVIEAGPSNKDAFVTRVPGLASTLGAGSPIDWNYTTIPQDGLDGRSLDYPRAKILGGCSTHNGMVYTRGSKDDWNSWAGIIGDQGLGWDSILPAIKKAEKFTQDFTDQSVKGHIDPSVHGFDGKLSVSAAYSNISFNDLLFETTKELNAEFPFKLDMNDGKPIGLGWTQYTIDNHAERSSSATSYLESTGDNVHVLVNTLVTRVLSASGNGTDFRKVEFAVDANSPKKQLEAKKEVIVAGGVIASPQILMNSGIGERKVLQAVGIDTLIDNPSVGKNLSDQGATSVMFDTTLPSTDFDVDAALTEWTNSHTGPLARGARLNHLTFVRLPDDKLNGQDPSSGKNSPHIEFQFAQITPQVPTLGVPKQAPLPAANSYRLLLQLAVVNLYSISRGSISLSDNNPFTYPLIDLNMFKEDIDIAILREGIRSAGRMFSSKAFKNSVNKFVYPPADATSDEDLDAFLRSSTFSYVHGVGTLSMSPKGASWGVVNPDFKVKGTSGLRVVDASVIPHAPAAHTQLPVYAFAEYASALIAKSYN
T2 sequence (Q3L245 26-602 H128A): as the sequence (Q3L245 26-602) above, with H103A counted along it
T3 sequence (Q3L245 26-602 H581A): as the sequence (Q3L245 26-602) above, with H556A counted along it

Structure (SMILES): C1=CCC=C1.C1=CCC=C1.[Fe+3] [Fc^+, ferrocenium ion]
- Km [1]: 170 ± 20 µM
- Km [2]: 160 ± 10 µM
- Km [3]: 170 ± 10 µM
